# Earlier results in patent US9775839B2, “2-pyrazine carboxamides as spleen tyrosine kinase inhibitors” (Merck Sharp & Dohme Corp., priority 2014, dated 2017).
# Assays:
# PGD2 = conditions: dosed intranasally, allergic rhinitis, phase I/II study
# [1] = allergic rhinitis, phase II clinical trial
smiles,measurement,setting,value
Oc1cccc(Nc2ncc(F)c(Nc3cccc(O)c3)n2)c1 [Example R112],change in PGD2,PGD2,statistically significant decrease
same,clinical safety,PGD2,safe across a range of indicators
same,efficacy versus placebo,[1],lack of efficacy
